Series [1] concerns CDF-1 mice. In words: Acute toxicity test in mice, single intraperitoneal administration. The series is classed as in vivo. The conditions noted are these: single i.p., female CDF-1 mice, 7 days observation. How it is done: Acute Toxicity Test with Compounds of Example in Mice
0.2 ml of a solution of a compound of the Example in physiological saline was intraperitoneally administered once to female CDF-1 mice (5 weeks in age, 5 animals per group). Observation was conducted for 7 days following the administration.

The test system of series [2] is human oral epidermoid carcinoma KB cells. Nature of the series: Growth inhibitory effect against KB cells (MTT, 72 h). It counts as cell-based. The conditions noted are these: absorbance 590 nm. How it is done: Growth Inhibitory Effect (IC50) of Compounds Obtained in Examples Against KB Cells Human oral epidermoid carcinoma KB cells (1×10^4 cells/ml) were transferred to a 96-well microwell plate at 0.1 ml per well and subjected to stationary culture at 37° C. with 5% CO2 for 24 hours. To the resulting culture was added a 10% MEM (Nissui Junyaku) solution of a compound of an Example, followed by stationary culture at 37° C. with 5% CO2 for 72 hours. The culture broth was then removed using a micropipette. 0.1 ml of a 10% minimal essential medium solution containing 3-(4,5-dimethylthiazol-2-yl)-2,5-diphenyl-2H-tetrazolium bromide (Dojin Kagaku) (1.0 mg/ml) was added, followed by cultivation at 37° C. for 4 hours. 0.1 ml of a 10% sodium dodecylsulfate (Wako Pure Chemical) was then added, followed by cultivation at 37° C. for 24 hours.

The subject of series [3] is Sarcoma 180 cells. In words: Antitumor activity on Sarcoma 180 cells in ICR mice, intraperitoneal. The series is classed as in vivo. The conditions noted are these: 0.1 mg/mouse, 8 times, tumor weight after 21 days. How it is done: (§1) Antitumor Activity of Compounds Obtained in Examples on Sarcoma 180 Cells
(2) Sarcoma 180 cells were subcutaneously transplanted to the side of the back of ICR mice (5 mice per group) at 1×10^6 cells per animal. 8, 9, 12, 13, 15, 16, 19 and 20 days after the transplantation (a total of 8 times), a compound of an Example, dissolved in physiological saline, was intraperitoneally administered (0.1 mg/mouse). After 21 days, the tumor tissue was excised and weighed.

Series [4] concerns Sarcoma 180 cells. Nature of the series: Antitumor activity on Sarcoma 180 cells in ICR mice, oral. The series is classed as in vivo. The conditions noted are these: 0.3 mg/mouse, 9 times, tumor weight after 21 days. How it is done:
as §1
(1) Sarcoma 180 cells were subcutaneously transplanted to the side of the back of ICR mice (5 mice per group) at 1×10^6 cells per animal. 8, 9, 10, 13, 14, 15, 16, 17 and 20 days after the transplantation (a total of 9 times), the compound of Example 1, dissolved in physiological saline, was orally administered (0.3 mg/mouse). After 21 days, the tumor tissue was excised and weighed.

The conditions of series [5]: cited from earlier work.

In brackets after ≈: the same amount, converted by molar mass.

Broadly, the IC50 is the midpoint of a concentration-inhibition curve. A high value points to weaker potency.

Consider `CCCCCCCCCCCCCCCCCCOCC(COCCOCC[N+](C)(C)CCCCCC(=O)[O-])OCC(C)=O` (stereo not shown) [Example 5, 6-[N,N-dimethyl-N-[2-[2-[3-octadecyloxy-2-(2-oxopropoxy)propoxy]ethoxy]ethyl]ammonio]hexanoate], for which the “Number of mice that died/number of subject mice” value in series [1] (50 mg/kg) was 0/5. This molecule gave an IC50 in series [2] of 2.5 µg/mL (≈ 3.97 µM).

In the case of `CCCCCCCCCCCCCCCCCCOCC(COCCOCCOCC[n+]1ccn(CCCC(=O)[O-])c1)Oc1ncccn1` (stereo not shown) [Example 21, 4-[3-[2-[2-[2-[3-octadecyloxy-2-(pyrimidin-2-yloxy)propoxy]ethoxy]ethoxy]ethyl]imidazolio-1-yl]-butyrate], the “Number of mice that died/number of subject mice” value in series [1] (100 mg/kg) is reported as 0/5. In series [2], this molecule came in with an IC50 of 0.63 µg/mL (≈ 0.912 µM).

On to `CCCCCCCCCCCCCCCCCCOCC(COCCOCC[n+]1ccn(CCCCCC(=O)[O-])c1)OCC(C)=O` (stereo not shown) [Example 3], for which the “Number of mice that died/number of subject mice” value in series [1] (50 mg/kg) is reported as 0/5. Moreover, the IC50 in series [2] is 0.32 µg/mL (≈ 0.49 µM).

Regarding `CCCCCCCCCCCCCCCCCCOCC(COCCOCC[n+]1ccn(CCCC(=O)[O-])c1)Oc1ncccn1` (stereo not shown) [Example 8, 4-[3-[2-[2-[3-octadecyloxy-2-(pyrimidin-2-yloxy)-propoxy]ethoxy]ethyl]imidazolio-1-yl]butyrate], the “Number of mice that died/number of subject mice” value in series [1] (100 mg/kg) is on record as 0/5. In series [2], this molecule yielded an IC50 of 1.25 µg/mL (≈ 1.93 µM). For the same molecule, in series [3], the “Growth inhibition ratio (1-T/C %)” value amounted to 66%.

For `CCCCCCCCCCCCCCCCCCOCC(COCCCC[n+]1cccc(CCC(=O)[O-])c1)Oc1ncccn1` (stereo not shown) [Example 22, 3-[1-[4-[3-octadecyloxy-2-(pyrimidin-2-yloxy)-propoxy]butyl]pyridinio-3-yl]propionate], in series [2], the half-inhibitory concentration (IC50) was determined as 0.63 µg/mL (≈ 1 µM).

For the molecule `CCCCCCCCCCCCCCCCCCOCC(COCCOCC[N+]1(CCCCCC(=O)[O-])CCCC1)Oc1ncccn1` (stereo not shown) [Example 17, 6-[1-[2-[2-[3-octadecyloxy-2-(pyrimidin-2-yloxy)-propoxy]ethoxy]ethyl]pyrrolidinio-1-yl]hexanoate], half-maximal inhibition in series [2] (IC50) was put at 0.32 µg/mL (≈ 0.472 µM).

Molecule `CCCCCCCCCCCCCCCCCCOCC(COCCCC[n+]1cccc(CCCCC(=O)[O-])c1)Oc1ncccn1` (stereo not shown) [Example 23, 5-[1-[4-[3-octadecyloxy-2-(pyrimidin-2-yloxy)-propoxy]butyl]pyridinio-3-yl]pentanoate] yielded an IC50 in series [2] of 0.32 µg/mL (≈ 0.488 µM).

Take `CCCCCCCCCCCCCCCCCCOCC(COCCOCC[n+]1ccn(CCCCCC(=O)[O-])c1)Oc1ncccn1` (stereo not shown) [Example 1, 6-[3-[2-[2-[3-octadecyloxy-2-(pyrimidin-2-yloxy)-propoxy]ethoxy]ethyl]imidazolio-1yl]hexanoate]: the “Number of mice that died/number of subject mice” value in series [1] (50 mg/kg) is recorded as 0/5. This molecule also returned a concentration for half-maximal inhibition (IC50) in series [2] of 0.16 µg/mL (≈ 0.237 µM). In series [4], the “Growth inhibition ratio (1-T/C %)” value came to 65%.

In turn, `CCCCCCCCCCCCCCCCCCOCC(COCCOCC[n+]1cccc(CCCOC(=O)CCC(=O)[O-])c1)Oc1ncccn1` (stereo not shown) [Example 19, 3-[1-[2-[2-[3-octadecyloxy-2-(pyrimidin-2-yloxy)-propoxy]ethoxy]ethyl]pyridinio-3-yl]propyl succinate] had an IC50 in series [2] of 0.63 µg/mL.

`CCCCCCCCCCCCCCCCCCOCC(COCCOCC[N+](C)(C)CCCCCC(=O)[O-])Oc1ncccn1` (stereo not shown) [Example 9, 6-[N,N-dimethyl-N-[2-[2-[3-octadecyloxy-2-(pyrimidin-2-yloxy)propoxy]ethoxy]ethyl]ammonio]-hexanoate]: the “Number of mice that died/number of subject mice” value in series [1] (100 mg/kg) is recorded as 0/5. The molecule further showed a half-inhibitory concentration (IC50) in series [2] of 1.25 µg/mL (≈ 1.92 µM).

In turn, `CCCCCCCCCCCCCCCCCCOCC(COCCOCC[n+]1ccn(CCC(C)(C)C(=O)OCC)c1)Oc1ncccn1` (stereo not shown) [Example 15, 1-(3-ethoxycarbonyl-3-methyl)butyl-3-[2-[2-[3-octadecyloxy-2-(pyrimidin-2-yloxy)propoxy]-ethoxy]ethylimidazolium chloride] displayed an IC50 in series [2] of 0.63 µg/mL.

`CCCCCCCCCCCCCCCCCCOCC(COCCOCC[n+]1ccn(CCCOC(=O)CCC(=O)[O-])c1)Oc1ncccn1` (stereo not shown) [Example 18, 3-[3-[2-[2-[3-octadecyloxy-2-(pyrimidin-2-yloxy)-propoxy]ethoxy]ethyl]imidazolio-1-yl]propyl succinate] had an IC50 in series [2] of 0.32 µg/mL.

Consider `CCCCCCCCCCCCCCCCCCOCC(COCCOCC[n+]1ccn(CCCCCCCCC(=O)[O-])c1)Oc1ncccn1` (stereo not shown) [Example 7], for which, in series [2], the IC50 stood at 0.16 µg/mL (≈ 0.223 µM).

As to `CCCCCCCCCCCCCCCCCCOCC(COCCOCC[n+]1ccn(CCC(C)(C)C(=O)[O-])c1)Oc1ncccn1` (stereo not shown) [Example 16, 2,2-dimethyl-4-[3-[2-[2-[3-octadecyloxy-2-(pyrimidin-2-yloxy)propoxy]ethoxy]ethyl]imidazolio-1-yl]butyrate], the IC50 in series [2] was determined as 0.63 µg/mL (≈ 0.933 µM).

As for `CCCCCCCCCCCCCCCCCCOCC(COP(=O)([O-])OCC[N+](C)(C)C)OC` (stereo not shown) [phospholipid represented by formula (II)], the antitumor activities entry in series [5] (Anticancer Research, 1, 345 (1981)) is recorded as “possess antitumor activities”. For the same molecule, the adverse effects result in series [5] (clinical trial limitation, similarity to PAF) is “various adverse effects such as bronchostenosis, platelet aggregation and hypotension”.

In the case of `CCCCCCCCCCCCCCCCCCOCC(COCCOCC[n+]1ccn(CCCCCC(=O)OC)c1)Oc1ncccn1.[Cl-]` (stereo not shown) [Example 14, 1-(5-methoxycarbonylpentyl)-3-[2-[2-[3-octadecyloxy-2-(pyrimidin-2-yloxy)propoxy]ethoxy]-ethyl]imidazolium chloride], in series [2], the midpoint of inhibition, the IC50, lay at 0.32 µg/mL.

For the molecule `CCCCCCCCCCCCCCCCCCOCC(COCCOCC[n+]1cccc(CCC(=O)[O-])c1)Oc1ncccn1` (stereo not shown) [Example 12, 3-[1-[2-[2-[3-octadecyloxy-2-(pyrimidin-2-yloxy)-propoxy]ethoxy]ethyl]pyridinio-3-yl]propionate], in series [1] (100 mg/kg), the “Number of mice that died/number of subject mice” value is listed as 0/5. Moreover, the IC50 in series [2] was 0.63 µg/mL (≈ 0.978 µM). For the same molecule, in series [3], the “Growth inhibition ratio (1-T/C %)” value came out at 81%.

Consider `CCCCCCCCCCCCCCCCCCOCC(COCCOCC[n+]1ccn(CCCCc2ccc(C(=O)[O-])cc2)c1)Oc1ncccn1` (stereo not shown) [Example 10, 4-[4-[3-[2-[2-[3-octadecyloxy-2-(pyrimidin-2-yloxy)-propoxy]ethoxy]ethyl]imidazolio-1-yl]butyl]benzoate], for which the “Number of mice that died/number of subject mice” value in series [1] (50 mg/kg) is given as 0/5. In series [2], this molecule yielded an IC50 of 0.32 µg/mL (≈ 0.434 µM).

With `CCCCCCCCCCCCCCCCCCOCC(COCCOCCOCC[n+]1ccn(CCCCCC(=O)[O-])c1)Oc1ncccn1` (stereo not shown) [Example 20, 6-[3-[2-[2-[2-[3-octadecyloxy-2-(pyrimidin-2-yloxy)propoxy]ethoxy]ethoxy]ethyl]imidazolio-1-yl]-hexanoate], in series [1] (100 mg/kg), the “Number of mice that died/number of subject mice” value was 0/5. In series [2], this molecule returned an IC50 of 0.32 µg/mL (≈ 0.445 µM).

With `O=C([O-])CCCCCn1cc[n+](CCOCCOCC(COCCCCCCCCCCCCC2CCCCC2)Oc2ncccn2)c1` (stereo not shown) [Example 25, 6-[3-[2-[2-[3-(12-cyclohexyldodecyloxy)-2-(pyrimidin-2-yloxy)propoxy]ethoxy]ethyl]imidazolio-1-yl]hexanoate], in series [2], half-maximal inhibition (IC50) was put at 0.16 µg/mL (≈ 0.238 µM).

In the case of `CCCCCCCCCCCCCCCCCCOCC(COCCOCC[n+]1ccn(CCCCC2CCC(C(=O)[O-])CC2)c1)Oc1ncccn1` (stereo not shown) [Example 11, 4-[4-[3-[2-[2-[3-octadecyloxy-2-(pyrimidin-2-yloxy)propoxy]ethoxy]ethyl]imidazolio-1-yl]butyl]-cyclohexylcarboxylate], in series [2], the IC50 was found to be 0.32 µg/mL (≈ 0.431 µM).

In series [2], `O=C([O-])CCCn1cc[n+](CCOCCOCC(COCCCCCCCCCCCCC2CCCCC2)Oc2ncccn2)c1` (stereo not shown) [Example 24, 4-[3-[2-[2-[3-(12-cyclohexyldodecyloxy)-2-(pyrimidin-2-yloxy)propoxy]ethoxy]ethyl]imidazolio-1-yl]butyrate] returned an IC50 of 0.32 µg/mL (≈ 0.496 µM).

Consider `CCCCCCCCCCCCCCCCCCOCC(COCCOCC[n+]1ccn(CC(=O)[O-])c1)OCCCCCC` (stereo not shown) [Example 6, 2-[3-[2-[2-[2-hexyloxy-3-octadecyloxypropoxy]-ethoxy]ethyl]imidazolio-1-yl]acetate], for which, in series [1] (50 mg/kg), the “Number of mice that died/number of subject mice” value is given as 0/5. In series [2], this molecule came in with an IC50 of 2.5 µg/mL (≈ 4 µM).

The values are drawn from patent US5081245A, “Carboxylic acid derivatives” (Takeda Chemical Industries, Ltd., priority 1988, dated 1992).
